Test results published in patent US20260097047A1, “Small molecule inhibitors of the ribosome biogenesis factor NVL2” (Board of Regents, The University of Texas System, priority 2023, published 2026).
pIC50: −log10 of the molar value.

These molecules were tested on HCT116 cells (assay: Cell viability assay (CellTiter-Glo, 72 hours) in HCT116 human colorectal cancer cells). Details: Homo sapiens, HCT-116; Table 5; HCT116, 72 hours; read-out: Activity.
Type: cell-based
Experimental: Cell culture: The HCT116 cell line was obtained from ATCC and cultured in Dulbecco's Modified Eagle's Medium (DMEM)-high glucose (Sigma Aldrich #D5796) supplemented with 10% fetal bovine serum (FBS) (Sigma-Aldrich #F2442) and 2 mM L-Glutamine (Sigma Aldrich #G7513). Cells were cultured at 37° C. in 5% CO2. The identity of all cell lines was confirmed by short tandem repeat (STR) analysis and confirmed to be mycoplasma-free using a PCR based assay (Genatlantis).
Cell viability assay: In 96-well assay plates (Corning #2903), 2,000 cells were plated per well in 100 μL of medium and allowed to adhere overnight. The next day, compounds suspended in DMSO were dispensed to the assayed wells using a D300e Digital Dispenser (Tecan). All wells were normalized to 0.5% DMSO. 72 hours after incubation at 37° C. in 5% CO2, cell viability was assayed using an ATP-based luminescent viability assay, CellTiter-Glo (Promega #G8462). Substrate was mixed 1:1 with phosphate-buffered saline (PBS) supplemented with 1% Triton X-100, and 40 μL of this mixture was added to the assay wells. Plates were shaken on a microplate shaker for 10 minutes at room temperature. Luminescence (CellTiter-Glo) was recorded using a Synergy 2 microplate reader (BioTek). In Prism 9 software (GraphPad), ten-point dose response curves were plotted with baseline-correction to the vehicle control well, and IC50 values were calculated by curve fitting using asymmetric (five parameter), least squares fit.

Row | pIC50 | Compound
1 | 6.00 to 6.30 | CCC/C=C/CN1C(=O)c2ccccc2Sc2cc(Nc3nccnc3C#N)ccc21 [(E)-3-((10-(Hex-2-en-1-yl)-11-oxo-10,11-dihydrodibenzo[b,f][1,4]thiazepin-7-yl)amino) pyrazine-2-carbonitrile]
2 | > 6.30 | CC#CCN1C(=O)c2ccccc2Sc2cc(Nc3cccnc3)ccc21 [10-(But-2-yn-1-yl)-7-(pyridin-3-ylamino)dibenzo[b,f][1,4]thiazepin-11 (10H)-one]
3 | > 6.30 | CC#CCN1C(=O)c2ccccc2Cc2cc(Nc3nccc(C#N)c3C)ccc21 [2-((5-(But-2-yn-1-yl)-6-oxo-6,11-dihydro-5H-dibenzo[b,e]azepin-2-yl)amino)-3-methylisonicotinonitrile]
4 | > 6.30 | CC#CCN1C(=O)c2ccccc2Sc2cc(Nc3nnccc3C#N)ccc21 [3-((10-(But-2-yn-1-yl)-11-oxo-10,11-dihydrodibenzo[b,f][1,4]thiazepin-7-yl)amino)pyridazine-4-carbonitrile]
5 | > 6.30 | CC#CCN1C(=O)c2ccccc2Cc2cc(Nc3ncccc3F)ccc21 [5-(But-2-yn-1-yl)-2-((3-fluoropyridin-2-yl)amino)-5H-dibenzo[b,e]azepin-6 (11H)-one]

Same assay, conditions: Homo sapiens, HCT-116; Table 6; HCT116, 72 hours; read-out: Activity

Row | pIC50 | Compound
6 | > 6.30 | CC#CCN1C(=O)c2ccccc2Sc2cc(NCC3(C)COC3)ccc21 [10-(But-2-yn-1-yl)-7-(((3-methyloxetan-3-yl)methyl)amino)dibenzo[b,f][1,4]thiazepin-11 (10H)-one]
7 | > 6.30 | CC#CCN1C(=O)c2ccccc2Sc2cc(NC3COC3)ccc21 [Table 6: —CH2CCMe; oxetan-3-yl; CH/CH; S, 10-(But-2-yn-1-yl)-7-(oxetan-3-ylamino)dibenzo[b,f][1,4]thiazepin-11 (10H)-one]

Same assay, conditions: Homo sapiens, HCT-116; Table 9; HCT116, 72 hours; read-out: Activity

Row | pIC50 | Compound
8 | > 6.30 | CC#CCN1C(=O)c2ccccc2C(C#N)c2cc(NC(=O)c3ccc(OC)cc3)ccc21 (stereo not drawn) [Table 9: —CH2CCMe; 4-MeOPh; CHCN, N-(5-(But-2-yn-1-yl)-11-cyano-6-oxo-6,11-dihydro-5H-dibenzo[b,e]azepin-2-yl)-4-methoxybenzamide]

Same assay, conditions: Table 3; HCT116, 72 hours; read-out: Activity

Row | pIC50 | Compound
9 | > 6.30 | CC#CCN1C(=O)c2ccccc2Sc2cc(NC(=O)Nc3ccc4oc(C)nc4c3)ccc21
10 | > 6.30 | CC#CCN1C(=O)c2ccccc2Sc2cc(NC(=O)N[C@H]3C[C@@H](OC)C3)cnc21 [Table 3: —CH2CCMe; cis-3-MeOcBu; CH/N]

Same assay, conditions: Table 4; HCT116, 72 hours; read-out: Activity

Row | pIC50 | Compound
11 | > 6.30 | CC#CCN1C(=O)c2ccccc2Sc2cc(NC(=S)Nc3ccc4scnc4c3)ccc21
12 | > 6.30 | CC#CCN1C(=O)c2ccccc2Sc2cc(NC(=S)Nc3cccc(OC)c3)ccc21 [Table 4: —CH2CCMe; 3-MeOPh; CH]
13 | > 6.30 | CC#CCN1C(=O)c2ccccc2Sc2cc(NC(=S)Nc3ccc(OC)cc3)ccc21 [Table 4: —CH2CCMe; 4-MeOPh; CH]

Same assay, conditions: Table 5; HCT116, 72 hours; read-out: Activity

Row | pIC50 | Compound
14 | > 6.30 | Cc1cnc(Nc2cnc3c(c2)Sc2ccccc2C(=O)N3CC#CCl)c(C)c1
15 | > 6.30 | C#CCN1C(=O)c2ccccc2Sc2cc(Nc3nc(C)ccc3F)cnc21
16 | > 6.30 | Cc1cnc(C)c(Nc2ccc3c(c2)Sc2ccccc2C(=O)N3CC#CCl)n1

Row | Compound | pIC50
17 | CC=CCN1C(=O)c2ccccc2Sc2cc(Nc3ncccc3C)cnc21 | > 6.30

Same assay, conditions: Table 6; HCT116, 72 hours; read-out: Activity

Row | pIC50 | Compound
18 | > 6.30 | CC#CCN1C(=O)c2ccccc2Sc2cc(NC3CC4(CC(O)C4)C3)ccc21 (stereo not drawn)
19 | > 6.30 | C#CCN1C(=O)c2ccccc2Sc2cc(NC3CC(COC)C3)ccc21 (stereo not drawn) [Table 6: —CH2CCH; 3-MeOCH2-cBu; CH/CH; S]
20 | > 6.30 | CC#CCN1C(=O)c2ccccc2Cc2cc(NCCCOC)ccc21 [Table 6: —CH2CCMe; (CH2)3OMe; CH/CH; CH2]

Same assay, conditions: Table 7; cell viability assay, CellTiter-Glo, 72 hours; scaffold drawing 42 with R^2, R^3, X/Y, Z; read-out: Activity

Row | pIC50 | Compound
21 | 5.30 to 6.00 | COCCN1C(=O)c2ccccc2Sc2cc(NC(=O)c3ccc(NC=O)c(Cl)c3)ccc21 [—(CH2)2OMe; 3-Cl,4-HC(O)NHPh; CH/CH; S]
22 | 5.30 to 6.00 | COCCN1C(=O)c2ccccc2Sc2cc(NC(=O)c3ccc(OC(F)(F)F)cc3)ccc21 [—(CH2)2OMe; 4-CF3OPh; CH/CH; S]
23 | 5.30 to 6.00 | C#Cc1ccc(C(=O)Nc2ccc3c(c2)Sc2ccccc2C(=O)N3CCOC)cn1 [—(CH2)2OMe; 6-(HCC)pyrid-3-yl; CH/CH; S]
24 | > 6.30 | C#CCOCCN1C(=O)c2ccccc2Sc2cc(NC(=O)c3ccoc3)ccc21 [—(CH2)2OCH2CCH; furan-3-yl; CH/CH; S]
25 | 5.30 to 6.00 | C#CCOCCN1C(=O)c2ccccc2Sc2cc(NC(=O)c3ccc(OC)c(F)c3)ccc21 [—(CH2)2OCH2CCH; 3-F,4-MeOPh; CH/CH; S]
26 | 6.00 to 6.30 | COCCN1C(=O)c2ccccc2Sc2cc(NC(=O)C3CCC3)ccc21 [—(CH2)2OMe; cBu; CH/CH; S]
27 | > 6.30 | COCCN1C(=O)c2cc(F)ccc2Sc2cc(NC(=O)c3ccoc3)ccc21 [—(CH2)2OMe; furan-3-yl; CH/CF; S]
28 | 5.30 to 6.00 | COCCN1C(=O)c2ccccc2Sc2cc(NC(=O)c3ncccn3)ccc21 [—(CH2)2OMe; pyrimidin-2-yl; CH/CH; S]
29 | 5.30 to 6.00 | COCCN1C(=O)c2ccccc2Sc2cc(NC(=O)c3ccc(OC)cc3C)ccc21 [—(CH2)2OMe; 2-Me,4-MeOPh; CH/CH; S]

Same assay, conditions: Table 8; analogs of scaffold drawing 43 defined by R^2, R^3, X/Y, W; read-out: Activity (IC50 class, cell viability assay)

Row | Compound | pIC50
30 | CC#CCN1C(=O)c2ccccc2Sc2cc(NC(=O)C34CC(OC)(C3)C4)cnc21 | > 6.30
31 | C#CCN1C(=O)c2ccccc2Sc2cc(NC(=O)C3CC4(CC(=NO)C4)C3)cnc21 (stereo not drawn) | > 6.30
32 | CC#CCN1C(=O)c2cc(F)ccc2Sc2cc(NC(=O)C3CC4(CC(O)C4)C3)cnc21 (stereo not drawn) | > 6.30
33 | O=C(Nc1ccc2c(c1)Sc1ccccc1C(=O)N2CC#CC1CC1)C1CC2(COC2)C1 | > 6.30
34 | CC#CCN1C(=O)c2ccccc2Sc2cc(NC(=O)C34CC(OC)(C3)C4)ccc21 | > 6.30
35 | O=C(Nc1cnc2c(c1)Sc1ccccc1C(=O)N2CC#CC1CC1)C1CC2(CC(O)C2)C1 (stereo not drawn) | > 6.30
36 | CC#CCN1C(=O)c2cc(F)ccc2Sc2cc(NC(=O)C34CC(O)(C3)C4)ccc21 | > 6.30
37 | CC#CCN1C(=O)c2ccccc2Sc2cc(NC(=O)C3CCCO3)cnc21 (stereo not drawn) [—CH2CCMe; tetrahydrofuran-2-yl; CH/CH; N] | > 6.30
38 | CC#CCN1C(=O)c2ccccc2Sc2cc(NC(=O)C3CCOC3)cnc21 (stereo not drawn) [—CH2CCMe; tetrahydrofuran-3-yl; CH/CH; N] | > 6.30

Next, values leading:

Row | pIC50 | Compound
39 | > 6.30 | CC#CCN1C(=O)c2ccccc2Sc2cc(NC(=O)[C@H]3C[C@H](O)C3)ccc21 [—CH2CCMe; trans-3-OH-cBu; CH/CH; CH]
40 | > 6.30 | CO[C@H]1C[C@@H](C(=O)Nc2cnc3c(c2)Sc2ccccc2C(=O)N3CC#CC2CC2)C1 [—CH2CC^cPr; cis-3-MeOcBu; CH/CH; N]
41 | > 6.30 | COCC=CC(=O)Nc1cnc2c(c1)Sc1ccccc1C(=O)N2CC#CC1CC1 [—CH2CC^cPr; CH═CHCH2OMe; CH/CH; N]
42 | > 6.30 | CC#CCN1C(=O)c2ccccc2Sc2cc(NC(=O)C3CCC3)ccc21 [—CH2CCMe; cBu; CH/CH; CH]
43 | > 6.30 | CC#CCN1C(=O)c2ccc(Cl)cc2Sc2cc(NC(=O)[C@H]3C[C@H](OC)C3)ccc21 [—CH2CCMe; trans-3-MeOcBu; CCl/CH; CH]
44 | > 6.30 | CC#CCN1C(=O)c2ccc(Cl)cc2Sc2cc(NC(=O)[C@@H]3C[C@H]3CO)ccc21 (relative stereo) [—CH2CCMe; trans-2-HOCH2-cPr; CCl/CH; CH]
45 | > 6.30 | CC#CCN1C(=O)c2ccccc2Sc2cc(NC(=O)NCCOC)ccc21 [—CH2CCMe; NH(CH2)2OMe; CH/CH; CH]
46 | > 6.30 | CC#CCN1C(=O)c2ccc(F)cc2Sc2cc(NC(=O)[C@@H]3C[C@H]3CO)cnc21 (relative stereo) [—CH2CCMe; trans-2-HOCH2-cPr; CF/CH; N]

Same assay, conditions: Table 9; HCT116, 72 hours; read-out: Activity

Row | Compound | pIC50
47 | CC#CCN1C(=O)c2ccccc2C(C)c2cc(NC(=O)CC3COC3)ccc21 (stereo not drawn) | > 6.30
48 | CC1c2ccccc2C(=O)N(CC#CC2CC2)c2ccc(NC(=O)C3CC4(CC(=NO)C4)C3)cc21 (stereo not drawn) | > 6.30
49 | COC12CC(C(=O)Nc3ccc4c(c3)C(C#N)c3ccccc3C(=O)N4CC#CC3CC3)(C1)C2 (stereo not drawn) | > 6.30
50 | CC#CCN1C(=O)c2ccccc2C(C)c2cc(NC(=O)C3CC4(CC(O)C4)C3)ccc21 (stereo not drawn) | > 6.30
51 | O=C(Nc1ccc2c(c1)Cc1ccccc1C(=O)N2CC#CC1CC1)C1CC2(COC2)C1 | > 6.30
52 | CC#CCN1C(=O)c2ccccc2Cc2cc(NC(=O)C34CC(O)(C3)C4)ccc21 | > 6.30

Results, then the molecule that gave them:

Row | pIC50 | Compound
53 | > 6.30 | CC#CCN1C(=O)c2ccccc2C(C)c2cc(NC(=O)NCCOC)ccc21 (stereo not drawn) [Table 9: —CH2CCMe; NH(CH2)2OMe; CHMe]
54 | > 6.30 | CC#CCN1C(=O)c2ccccc2C(C)c2cc(NC(=O)OCCOC)ccc21 (stereo not drawn) [Table 9: —CH2CCMe; O(CH2)2OMe; CHMe]
55 | > 6.30 | CC1(O)c2ccccc2C(=O)N(CC#CC2CC2)c2ccc(NC(=O)[C@@H]3C[C@H]3CO)cc21 (relative stereo)
56 | > 6.30 | CC1c2ccccc2C(=O)N(CC#CC2CC2)c2ccc(NC(=O)C=CCO)cc21 (stereo not drawn) [Table 9: —CH2CC^cPr; CH═CHCH2OH; CHMe]

Same assay, conditions: cell viability assay; Table 10 analogs of scaffold drawing 45 defined by R2, R3, X/Y, W; read-out: Activity

Row | pIC50 | Compound
57 | > 6.30 | CC#CCN1C(=O)c2ccc(Cl)cc2Sc2cc(NC(=O)[C@H]3C[C@H](OC)C3)ccc21 [—CH2CCMe; trans-3-MeOcBu; CCl/CH; CH]
